What was measured:
Type in all cases: cell-based
[1] = system: Pseudomonas aeruginosa (Pa) ATCC 19429; test: Challenge Test (artificial contamination) of cosmetic formula, P. aeruginosa; conditions: 2% compound in cosmetic formula; inoculation about 10^6 cfu/gram; 7 days contact at 22° C.±2° C. in darkness; <200 cfu = sensitivity threshold
Description: (§1) The antimicrobial efficacy of a compound of formula (I) was evaluated via the Challenge Test or artificial contamination method. The method of the challenge test consists of an artificial contamination of the sample with collection microbial strains (bacteria, yeasts and moulds) and evaluation of the number of revivable microorganisms seven days after the inoculation. […] [table] […] After 7 days of contact time between the microorganisms and the product at 22° C.±2° C. and in darkness, decimal dilutions are performed and the number of revivable microorganisms remaining in the product is counted.

[2] = system: Enterococcus faecalis (Ef) ATCC 33186; test: Challenge Test (artificial contamination) of cosmetic formula, E. faecalis; conditions: 2% compound in cosmetic formula; inoculation about 10^6 cfu/gram; 7 days contact at 22° C.±2° C. in darkness; <200 cfu = sensitivity threshold
Description: as §1

[3] = system: Candida albicans (Ca) ATCC 10231; test: Challenge Test (artificial contamination) of cosmetic formula, C. albicans; conditions: 2% compound in cosmetic formula; inoculation about 10^6 cfu/gram; 7 days contact at 22° C.±2° C. in darkness; <200 cfu = sensitivity threshold
Description: as §1

[4] = system: Escherichia coli (Ec) ATCC 8739; test: Challenge Test (artificial contamination) of cosmetic formula, E. coli; conditions: 2% compound in cosmetic formula; inoculation about 10^6 cfu/gram; 7 days contact at 22° C.±2° C. in darkness; <200 cfu = sensitivity threshold
Description: as §1

[5] = system: Aspergillus niger (An) ATCC 6275; test: Challenge Test (artificial contamination) of cosmetic formula, A. niger; conditions: 2% compound in cosmetic formula; inoculation about 10^6 cfu/gram; 7 days contact at 22° C.±2° C. in darkness
Description: The antimicrobial efficacy of a compound of formula (I) was evaluated via the Challenge Test or artificial contamination method. The method of the challenge test consists of an artificial contamination of the sample with collection microbial strains (bacteria, yeasts and moulds) and evaluation of the number of revivable microorganisms seven days after the inoculation. […] [table] The gram-negative bacteria (Escherichia coli and Pseudomonas aeruginosa), gram-positive bacteria (Enterococcus faecalis), yeast (Candida albicans) and mould (Aspergillus niger) are seeded in the subculturing medium, respectively, the day before the inoculation for the bacteria and the yeast, and five days before the inoculation for the mould. for the mould, the spores are collected by washing the agar with 6 to 7 ml of harvesting solution and the suspension is recovered in a sterile tube or flask. After homogenizing the microbial suspension, 0.2 ml of inoculum is introduced into each pill bottle (the suspensions are used pure: between 1×10^8 and 3×10^8 cfu per ml) and the microbial suspension in the 20 g of product (=cosmetic formula) is homogenized thoroughly using a spatula. […] After 7 days of contact time between the microorganisms and the product at 22° C.±2° C. and in darkness, decimal dilutions are performed and the number of revivable microorganisms remaining in the product is counted.

CCOc1cc(CCC(C)=O)ccc1O [Compound]
No. of cfu/gram of product at T7 days, P. aeruginosa [1]: <200 cfu/gram of product
No. of cfu/gram of product at T7 days, E. faecalis [2]: <200 cfu/gram of product
No. of cfu/gram of product at T7 days, C. albicans [3]: <200 cfu/gram of product
No. of cfu/gram of product at T7 days, E. coli [4]: <200 cfu/gram of product
No. of cfu/gram of product at T7 days, A. niger [5]: 3.4 × 10^5 cfu/gram of product

From patent publication US11306051B2, “Use of vanillin derivatives as a preservative, preservation method, compounds, and composition” (L'OREAL, priority 2009, dated 2022)
